The numbers were not newly measured in patent publication EP2408442B1, “PHARMACEUTICAL COMPOSITION PRESENTING ANTI-INFLAMMATORY PROPERTIES” (Bioxtract S.A., priority 2009, dated 2010), which cites them from elsewhere.

For the data set the following is noted: 42 or 84 mg of oral not formulated curcumin, including metabolised forms (glucuronides or sulfates).

Regarding `COc1cc(C=CC(=O)CC(=O)C=Cc2ccc(O)c(OC)c2)ccc1O` [curcumin, 1,7-bis(4-hydroxyl-3-methoxyphenyl)-1,6-heptadiene-3,5-dione], the oral bioavailability entry is given as “not bioavailable at all”.
